Test results taken from ChEMBL document CHEMBL3885861, “Open TG-GATES”.

Organism: Rattus norvegicus
Test: Open TG-GATES - Regimen: Single
Format: toxicity, organism-based, Sprague-Dawley
Parameters: regimen Single, gender Male, age 6 weeks
Details: in vivo, po, 0 mg/kg, route gavage, dose level Control; for APTT / Bas / Eos / Fbg / Hb / Ht / Lym / MCH / MCHC / MCV / Mono / Neu / PT / Plat / RBC / Ret / WBC: tissue Blood; for KIDNEY_L / KIDNEY_R / KIDNEY_TOTAL: tissue Kidney; for LIVER: tissue Liver; for A/G / ALP / ALT / AST / BUN / CRE / Ca / Cl / DBIL / GLC / IP / K / LDH / Na / PL / RALB / TBIL / TC / TG / TP / gamma-GTP: tissue Plasma

Compound: CC[C@@H](CO)NCCN[C@@H](CC)CO [ETHAMBUTOL]
- TERMINAL_BW (3 h): 227 g
- APTT (3 h): 21.4 s
- Bas (3 h): 0%
- Eos (3 h): 0.8%
- Fbg (3 h): 319 mg/dL
- Hb (3 h): 13.3 g/dL
- Ht (3 h): 39.5%
- Lym (3 h): 83.8%
- MCH (3 h): 22.3 pg
- MCHC (3 h): 33.7%
- MCV (3 h): 66.2 fL
- Mono (3 h): 2%
- Neu (3 h): 12.2%
- PT (3 h): 15.9 s
- Plat (3 h): 118.8 x10_4/uL
- RBC (3 h): 597.6 x10_4/ul
- Ret (3 h): 8.3%
- WBC (3 h): 97.7 x10_2/uL
- KIDNEY_L (3 h): 1 g
- KIDNEY_R (3 h): 1 g
- KIDNEY_TOTAL (3 h): 2.1 g
- LIVER (3 h): 11.4 g
- A/G (3 h): 1.2
- ALP (3 h): 1599 IU/L
- ALT (3 h): 42.2 IU/L
- AST (3 h): 73.6 IU/L
- BUN (3 h): 14.2 mg/dL
- CRE (3 h): 0.2 mg/dL
- Ca (3 h): 10.4 mg/dL
- Cl (3 h): 106.6 meq/L
- DBIL (3 h): 0 mg/dL
- GLC (3 h): 192.4 mg/dL
- IP (3 h): 8.7 mg/dL
- K (3 h): 4.1 meq/L
- LDH (3 h): 171.6 IU/L
- Na (3 h): 144.2 meq/L
- PL (3 h): 137.2 mg/dL
- RALB (3 h): 3 g/dL
- TBIL (3 h): 0.01 mg/dL
- TC (3 h): 75.6 mg/dL
- TG (3 h): 63.8 mg/dL
- TP (3 h): 5.3 g/dL
- gamma-GTP (3 h): 1.6 IU/L
- TERMINAL_BW (6 h): 224 g
- APTT (6 h): 22.2 s
- Bas (6 h): 0%
- Eos (6 h): 0.8%
- Fbg (6 h): 301.2 mg/dL
- Hb (6 h): 13.6 g/dL
- Ht (6 h): 39.9%
- Lym (6 h): 82.6%
- MCH (6 h): 21.7 pg
- MCHC (6 h): 34.1%
- MCV (6 h): 63.8 fL
- Mono (6 h): 2.4%
- Neu (6 h): 13%
- PT (6 h): 15.6 s
- Plat (6 h): 122.5 x10_4/uL
- RBC (6 h): 624.8 x10_4/ul
- Ret (6 h): 7.5%
- WBC (6 h): 117.8 x10_2/uL
- KIDNEY_L (6 h): 1 g
- KIDNEY_R (6 h): 1 g
- KIDNEY_TOTAL (6 h): 2 g
- LIVER (6 h): 10 g
- A/G (6 h): 1.2
- ALP (6 h): 1271 IU/L
- ALT (6 h): 35 IU/L
- AST (6 h): 66.2 IU/L
- BUN (6 h): 11.2 mg/dL
- CRE (6 h): 0.2 mg/dL
- Ca (6 h): 10.3 mg/dL
- Cl (6 h): 105.8 meq/L
- DBIL (6 h): 0 mg/dL
- GLC (6 h): 200.4 mg/dL
- IP (6 h): 9.2 mg/dL
- K (6 h): 4.4 meq/L
- LDH (6 h): 176.2 IU/L
- Na (6 h): 141.8 meq/L
- PL (6 h): 134.8 mg/dL
- RALB (6 h): 2.9 g/dL
- TBIL (6 h): 0.02 mg/dL
- TC (6 h): 72 mg/dL
- TG (6 h): 82.8 mg/dL
- TP (6 h): 5.4 g/dL
- gamma-GTP (6 h): 1.6 IU/L
- TERMINAL_BW (9 h): 220 g
- APTT (9 h): 22.6 s
- Bas (9 h): 0%
- Eos (9 h): 0.6%
- Fbg (9 h): 288 mg/dL
- Hb (9 h): 13.4 g/dL
- Ht (9 h): 39.5%
- Lym (9 h): 82.6%
- MCH (9 h): 21.3 pg
- MCHC (9 h): 34%
- MCV (9 h): 62.7 fL
- Mono (9 h): 2.4%
- Neu (9 h): 13.2%
- PT (9 h): 16.5 s
- Plat (9 h): 116 x10_4/uL
- RBC (9 h): 632 x10_4/ul
- Ret (9 h): 6.9%
- WBC (9 h): 93.6 x10_2/uL
- KIDNEY_L (9 h): 1 g
- KIDNEY_R (9 h): 1 g
- KIDNEY_TOTAL (9 h): 2 g
- LIVER (9 h): 9.3 g
- A/G (9 h): 1.2
- ALP (9 h): 1394.2 IU/L
- ALT (9 h): 37.4 IU/L
- AST (9 h): 69.8 IU/L
- BUN (9 h): 10.6 mg/dL
- CRE (9 h): 0.2 mg/dL
- Ca (9 h): 10.1 mg/dL
- Cl (9 h): 107.8 meq/L
- DBIL (9 h): 0.002 mg/dL
- GLC (9 h): 180.2 mg/dL
- IP (9 h): 9 mg/dL
- K (9 h): 4.1 meq/L
- LDH (9 h): 136.8 IU/L
- Na (9 h): 142 meq/L
- PL (9 h): 118.2 mg/dL
- RALB (9 h): 3 g/dL
- TBIL (9 h): 0.024 mg/dL
- TC (9 h): 68.4 mg/dL
- TG (9 h): 37.4 mg/dL
- TP (9 h): 5.6 g/dL
- gamma-GTP (9 h): 1.2 IU/L
- TERMINAL_BW (24 h): 232.7 g
- APTT (24 h): 22.2 s
- Bas (24 h): 0%
- Eos (24 h): 0.8%
- Fbg (24 h): 311.8 mg/dL
- Hb (24 h): 13.9 g/dL
- Ht (24 h): 39.5%
- Lym (24 h): 82.4%
- MCH (24 h): 22.5 pg
- MCHC (24 h): 35.1%
- MCV (24 h): 64 fL
- Mono (24 h): 2.4%
- Neu (24 h): 13.4%
- PT (24 h): 16.4 s
- Plat (24 h): 115.4 x10_4/uL
- RBC (24 h): 618.2 x10_4/ul
- Ret (24 h): 6.9%
- WBC (24 h): 99.5 x10_2/uL
- KIDNEY_L (24 h): 1 g
- KIDNEY_R (24 h): 1 g
- KIDNEY_TOTAL (24 h): 2 g
- LIVER (24 h): 10.8 g
- A/G (24 h): 1.1
- ALP (24 h): 1625.6 IU/L
- ALT (24 h): 47.6 IU/L
- AST (24 h): 73 IU/L
- BUN (24 h): 17.2 mg/dL
- CRE (24 h): 0.2 mg/dL
- Ca (24 h): 10.6 mg/dL
- Cl (24 h): 106.8 meq/L
- DBIL (24 h): 0 mg/dL
- GLC (24 h): 199 mg/dL
- IP (24 h): 8.1 mg/dL
- K (24 h): 4.1 meq/L
- LDH (24 h): 176.8 IU/L
- Na (24 h): 142.4 meq/L
- PL (24 h): 147.2 mg/dL
- RALB (24 h): 3 g/dL
- TBIL (24 h): 0.006 mg/dL
- TC (24 h): 73.4 mg/dL
- TG (24 h): 94.6 mg/dL
- TP (24 h): 5.7 g/dL
- gamma-GTP (24 h): 1.8 IU/L
